Assay results as given in patent US20260092071A1, “COMPOUNDS AND COMPOSITIONS AS SMARCA2/4 DEGRADERS AND USES THEREOF” (REGENTS OF THE UNIVERSITY OF MICHIGAN, priority 2022, published 2026).

Legend:
[1] = target: SMARCA2 (Homo sapiens, UniProt P51531); experiment: HiBit assay in engineered HT1080 CRISPR knock-in cell, 6 hrs (B series), SMARCA2; type: cell-based; details: 6 hrs incubation; for DC50: read-out: SMARC A2 HT1080 HiBit DC50; for Dmax: HT-1080, HT1080 CRISPR knock-in cells, read-out: SMARC A2 HT1080 HiBit Dmax (%)
Sequence of SMARCA2 (P51531 whole entry): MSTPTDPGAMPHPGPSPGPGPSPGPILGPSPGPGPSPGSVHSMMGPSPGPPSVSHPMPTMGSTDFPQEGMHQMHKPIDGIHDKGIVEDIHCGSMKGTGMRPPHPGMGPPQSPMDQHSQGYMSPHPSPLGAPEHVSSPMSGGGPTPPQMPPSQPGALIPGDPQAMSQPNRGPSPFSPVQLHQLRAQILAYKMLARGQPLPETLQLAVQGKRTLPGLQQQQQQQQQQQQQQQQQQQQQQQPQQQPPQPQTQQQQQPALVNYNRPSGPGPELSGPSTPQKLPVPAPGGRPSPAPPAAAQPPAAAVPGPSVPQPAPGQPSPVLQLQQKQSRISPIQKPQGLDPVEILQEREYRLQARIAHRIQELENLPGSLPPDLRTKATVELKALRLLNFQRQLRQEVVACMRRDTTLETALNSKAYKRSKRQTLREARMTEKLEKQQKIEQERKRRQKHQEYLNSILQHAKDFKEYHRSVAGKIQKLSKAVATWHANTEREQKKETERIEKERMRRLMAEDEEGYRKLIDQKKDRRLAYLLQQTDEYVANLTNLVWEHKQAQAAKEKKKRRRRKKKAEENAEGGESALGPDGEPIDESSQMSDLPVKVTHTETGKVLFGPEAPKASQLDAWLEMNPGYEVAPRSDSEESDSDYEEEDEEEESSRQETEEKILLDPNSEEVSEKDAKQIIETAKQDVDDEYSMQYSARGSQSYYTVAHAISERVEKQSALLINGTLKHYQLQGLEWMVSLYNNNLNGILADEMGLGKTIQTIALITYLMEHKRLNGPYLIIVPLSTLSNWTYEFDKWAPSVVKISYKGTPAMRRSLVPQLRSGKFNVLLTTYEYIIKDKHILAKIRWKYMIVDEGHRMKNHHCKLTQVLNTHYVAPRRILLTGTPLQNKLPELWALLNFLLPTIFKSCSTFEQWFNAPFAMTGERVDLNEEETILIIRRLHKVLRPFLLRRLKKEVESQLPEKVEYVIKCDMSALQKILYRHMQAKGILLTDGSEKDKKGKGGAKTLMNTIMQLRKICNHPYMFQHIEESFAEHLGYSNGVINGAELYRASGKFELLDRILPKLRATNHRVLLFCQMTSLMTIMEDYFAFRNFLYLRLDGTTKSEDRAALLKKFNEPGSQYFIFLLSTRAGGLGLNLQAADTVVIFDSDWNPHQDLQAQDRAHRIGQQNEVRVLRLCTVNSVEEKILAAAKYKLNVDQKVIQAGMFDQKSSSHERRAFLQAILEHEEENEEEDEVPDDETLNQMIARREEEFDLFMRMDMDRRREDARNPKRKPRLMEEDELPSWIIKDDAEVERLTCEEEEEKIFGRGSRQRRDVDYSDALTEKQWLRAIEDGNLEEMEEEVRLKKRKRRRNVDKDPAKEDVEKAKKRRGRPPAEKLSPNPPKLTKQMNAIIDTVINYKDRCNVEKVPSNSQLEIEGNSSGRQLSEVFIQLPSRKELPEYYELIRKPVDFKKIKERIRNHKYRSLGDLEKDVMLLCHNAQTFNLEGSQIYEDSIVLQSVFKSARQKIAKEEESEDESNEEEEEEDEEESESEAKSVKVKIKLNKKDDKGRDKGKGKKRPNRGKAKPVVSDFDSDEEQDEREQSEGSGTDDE
How it was run: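 Engineered HT1080 knock-in cells, 2000 cells/well, 6 hrs compound exposure, 37° C/5% CO2, 0.1% DMSO final. Lytic detection: LgBiT 1:100 plus HiBiT substrate 1:50 in lytic buffer, 10 min shake at RT, luminescence read.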

[2] = target: SMARCA4 (Homo sapiens, UniProt P51532); experiment: HiBit assay in engineered HT1080 CRISPR knock-in cell, 6 hrs (B series), SMARCA4; type: cell-based; details: 6 hrs incubation; for DC50: read-out: SMARC A4 HT1080 HiBit DC50; for Dmax: HT-1080, HT1080 CRISPR knock-in cells, read-out: SMARC A4 HT1080 HiBit Dmax(%)
Sequence of SMARCA4 (P51532 whole entry): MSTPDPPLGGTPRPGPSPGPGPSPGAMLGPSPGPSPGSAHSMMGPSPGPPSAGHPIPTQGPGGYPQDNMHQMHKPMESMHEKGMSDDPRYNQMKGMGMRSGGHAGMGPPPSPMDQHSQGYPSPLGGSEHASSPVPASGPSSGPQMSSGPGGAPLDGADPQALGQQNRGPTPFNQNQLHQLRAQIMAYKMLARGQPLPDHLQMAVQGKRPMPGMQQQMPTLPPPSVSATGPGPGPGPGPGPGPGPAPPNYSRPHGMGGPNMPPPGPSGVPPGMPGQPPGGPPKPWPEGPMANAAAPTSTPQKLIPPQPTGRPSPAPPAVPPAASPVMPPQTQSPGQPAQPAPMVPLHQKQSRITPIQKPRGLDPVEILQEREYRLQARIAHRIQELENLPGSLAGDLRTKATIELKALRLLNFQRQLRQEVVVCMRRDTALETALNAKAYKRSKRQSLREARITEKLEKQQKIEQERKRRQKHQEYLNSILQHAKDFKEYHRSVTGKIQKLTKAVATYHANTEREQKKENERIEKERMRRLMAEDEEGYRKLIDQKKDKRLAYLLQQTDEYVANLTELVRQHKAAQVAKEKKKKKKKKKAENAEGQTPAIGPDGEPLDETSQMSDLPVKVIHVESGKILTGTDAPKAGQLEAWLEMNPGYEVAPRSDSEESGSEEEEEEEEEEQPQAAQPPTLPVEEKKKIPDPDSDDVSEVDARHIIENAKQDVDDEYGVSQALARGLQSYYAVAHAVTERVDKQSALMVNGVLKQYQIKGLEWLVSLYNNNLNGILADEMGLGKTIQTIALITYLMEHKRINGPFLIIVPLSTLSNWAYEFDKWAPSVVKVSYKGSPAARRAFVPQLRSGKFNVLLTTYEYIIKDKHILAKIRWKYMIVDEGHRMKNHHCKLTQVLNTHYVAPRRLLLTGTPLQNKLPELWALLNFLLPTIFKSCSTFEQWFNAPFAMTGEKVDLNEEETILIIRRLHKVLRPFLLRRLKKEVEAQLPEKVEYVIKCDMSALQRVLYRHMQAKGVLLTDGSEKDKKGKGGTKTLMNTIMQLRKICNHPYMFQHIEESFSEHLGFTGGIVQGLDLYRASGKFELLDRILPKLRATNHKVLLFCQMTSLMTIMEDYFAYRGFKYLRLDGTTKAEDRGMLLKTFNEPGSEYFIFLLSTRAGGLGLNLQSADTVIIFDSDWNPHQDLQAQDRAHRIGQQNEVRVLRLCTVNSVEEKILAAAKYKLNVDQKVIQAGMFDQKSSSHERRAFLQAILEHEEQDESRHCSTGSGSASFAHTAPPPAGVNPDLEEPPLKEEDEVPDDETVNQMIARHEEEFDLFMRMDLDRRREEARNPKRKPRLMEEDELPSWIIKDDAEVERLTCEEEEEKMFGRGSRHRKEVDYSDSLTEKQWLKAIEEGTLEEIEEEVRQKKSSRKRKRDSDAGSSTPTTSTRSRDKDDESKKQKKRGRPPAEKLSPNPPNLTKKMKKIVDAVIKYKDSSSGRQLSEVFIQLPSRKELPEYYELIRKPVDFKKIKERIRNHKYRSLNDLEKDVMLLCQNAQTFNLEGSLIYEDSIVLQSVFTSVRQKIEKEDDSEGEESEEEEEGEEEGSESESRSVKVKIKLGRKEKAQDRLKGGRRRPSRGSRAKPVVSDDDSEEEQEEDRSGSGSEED
How it was run: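 Compounds were dispensed first, then HT1080 knock-in cells added and incubated for 6 hrs at 37° C. Next, detection reagent containing LgBiT and lytic substrate was added. Plates were shaken 10 min and centrifuged, and luminescence was measured.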

Structure (SMILES)	DC50 ([1]; HT1080 CRISPR knock-in cells) [nM]	Dmax [1] [%]	DC50 ([2]; HT1080 CRISPR knock-in cells) [nM]	Dmax [2] [%]	SMARC A2 HT1080 HiBit Dmax (%) ([1]; HT1080 CRISPR knock-in cells)	SMARC A4 HT1080 HiBit Dmax(%) ([2]; HT1080 CRISPR knock-in cells)
Cc1ncsc1-c1ccc([C@H](C)NC(=O)[C@@H]2C[C@@H](O)CN2C(=O)[C@H](C(C)C)n2cc(CCCN3CCC(c4ccc5c(c4)-n4c(nc(=O)c6c(Cl)cccc64)C5(C)C)CC3)nn2)cc1 [Compound B58, (2S,4R)-1-((S)-2-(4-(3-(4-(4-chloro-7,7-dimethyl-5-oxo-5,7-dihydroindolo[1,2-a]quinazolin-10-yl)piperidin-1-yl)propyl)-1H-1,2,3-triazol-1-yl)-3-methylbutanoyl)-4-hydroxy-N-((S)-1-(4-(4-methylthiazol-5-yl)phenyl)ethyl)pyrrolidine-2-carboxamide]	< 100	> 90	< 100	70 to 90		
C#Cc1ccc([C@H](CN2CCOCC2)NC(=O)[C@@H]2C[C@@H](O)CN2C(=O)[C@@H](n2cc([C@H]3CC[C@H](CN4CCC(c5ccc6c(c5)-n5c(nc(=O)c7c(Cl)cccc75)C6(C)C)CC4)CC3)nn2)C(C)(C)C)cc1 [Compound B102, (2S,4R)-1-((S)-2-(4-((1r,4S)-4-((4-(4-chloro-7,7-dimethyl-5-oxo-5,7-dihydroindolo[1,2-a]quinazolin-10-yl)piperidin-1-yl)methyl)cyclohexyl)-1H-1,2,3-triazol-1-yl)-3,3-dimethylbutanoyl)-N—((R)-1-(4-ethynylphenyl)-2-morpholinoethyl)-4-hydroxypyrrolidine-2-carboxamide]	< 100	> 90	< 100	70 to 90		
Cc1ncsc1-c1ccc([C@H](C)NC(=O)[C@@H]2C[C@@H](O)CN2C(=O)[C@@H](c2cc(OCC3(CN4CCC(c5ccc6c(c5)-n5c(nc(=O)c7c(Cl)cccc75)C6(C)C)CC4)CC3)no2)C(C)C)cc1 [Compound B91, (2S,4R)-1-((R)-2-(3-((1-((4-(4-chloro-7,7-dimethyl-5-oxo-5,7-dihydroindolo[1,2-a]quinazolin-10-yl)piperidin-1-yl)methyl)cyclopropyl)methoxy)isoxazol-5-yl)-3-methylbutanoyl)-4-hydroxy-N-((S)-1-(4-(4-methylthiazol-5-yl)phenyl)ethyl)pyrrolidine-2-carboxamide]	< 100	> 90	< 100	> 90		
Cc1ncsc1-c1ccc([C@H](C)NC(=O)[C@@H]2C[C@@H](O)CN2C(=O)[C@H](C(C)C)n2cc(OCCN3CCC(c4ccc5c(c4)C(C)(C)c4nc(=O)c6c(Cl)cccc6n4-5)CC3)cn2)cc1 [Compound B57, (2S,4R)-1-(2-(4-(2-(4-(4-chloro-7,7-dimethyl-5-oxo-5,7-dihydroindolo[1,2-a]quinazolin-9-yl)piperidin-1-yl)ethoxy)-1H-pyrazol-1-yl)-3-methylbutanoyl)-4-hydroxy-N—((S)-1-(4-(4-methylthiazol-5-yl)phenyl)ethyl)pyrrolidine-2-carboxamide]	100 to 500	70 to 90	501 to 1000	< 50		
Cc1ncsc1-c1ccc([C@H](CN2CCOCC2)NC(=O)[C@@H]2C[C@@H](O)CN2C(=O)[C@H](C(C)C)n2cc([C@H]3CC[C@H](CN4CCC(c5ccc6c(c5)-n5c(nc(=O)c7c(Br)cccc75)C65CCCCC5)CC4)CC3)nn2)cc1 [Compound B106, (2S,4R)-1-((S)-2-(4-((1r,4S)-4-((4-(4′-bromo-5′-oxo-5′H-spiro[cyclohexane-1,7′-indolo[1,2-a]quinazolin]-10′-yl)piperidin-1-yl)methyl)cyclohexyl)-1H-1,2,3-triazol-1-yl)-3-methylbutanoyl)-4-hydroxy-N-((R)-1-(4-(4-methylthiazol-5-yl)phenyl)-2-morpholinoethyl)pyrrolidine-2-carboxamide]	< 100	> 90	< 100	> 90		
Cc1ncsc1-c1ccc([C@H](CC(=O)NCCN2CCC(c3ccc4c(c3)-n3c(nc(=O)c5c(Cl)cccc53)C4(C)C)CC2)NC(=O)[C@@H]2C[C@@H](O)CN2C(=O)[C@@H](NC(=O)C2(F)CC2)C(C)(C)C)cc1 [Compound B44, (2S,4R)-N-((S)-3-((2-(4-(4-chloro-7,7-dimethyl-5-oxo-5,7-dihydroindolo[1,2-a]quinazolin-10-yl)piperidin-1-yl)ethyl)amino)-1-(4-(4-methylthiazol-5-yl)phenyl)-3-oxopropyl)-1-((S)-2-(1-fluorocyclopropane-1-carboxamido)-3,3-dimethylbutanoyl)-4-hydroxypyrrolidine-2-carboxamide]	100 to 500	< 50	100 to 500	< 50		

The remaining lines, values ahead:

DC50 ([1]; HT1080 CRISPR knock-in cells) [nM]	Dmax [1] [%]	DC50 ([2]; HT1080 CRISPR knock-in cells) [nM]	Dmax [2] [%]	SMARC A2 HT1080 HiBit Dmax (%) ([1]; HT1080 CRISPR knock-in cells)	SMARC A4 HT1080 HiBit Dmax(%) ([2]; HT1080 CRISPR knock-in cells)	Structure (SMILES)
< 100	> 90	< 100	> 90			Cc1ncsc1-c1ccc([C@H](C)NC(=O)[C@@H]2C[C@@H](O)CN2C(=O)[C@@H](c2cc(N3CCC(C(=O)N4CCC(c5ccc6c(c5)C(C)(C)c5nc(=O)c7c(Cl)cccc7n5-6)CC4)CC3)no2)C(C)C)cc1 [Compound B90, (2S,4R)-1-(2-(3-(4-(4-(4-chloro-7,7-dimethyl-5-oxo-5,7-dihydroindolo[1,2-a]quinazolin-9-yl)piperidine-1-carbonyl)piperidin-1-yl)isoxazol-5-yl)-3-methylbutanoyl)-4-hydroxy-N—((S)-1-(4-(4-methylthiazol-5-yl)phenyl)ethyl)pyrrolidine-2-carboxamide]
< 100	> 90	100 to 500	50 to 69			Cc1ncsc1-c1ccc2c(c1)CCC[C@@H]2NC(=O)[C@@H]1C[C@@H](O)CN1C(=O)[C@@H](n1cc([C@H]2CC[C@H](CN3CCC(c4ccc5c(c4)-n4c(nc(=O)c6c(Cl)cccc64)C5(C)C)CC3)CC2)nn1)C(C)(C)C [Compound B146, (2S,4R)-1-((S)-2-(4-((1r,4S)-4-((4-(4-chloro-7,7-dimethyl-5-oxo-5,7-dihydroindolo[1,2-a]quinazolin-10-yl)piperidin-1-yl)methyl)cyclohexyl)-1H-1,2,3-triazol-1-yl)-3,3-dimethylbutanoyl)-4-hydroxy-N-((S)-6-(4-methylthiazol-5-yl)-1,2,3,4-tetrahydronaphthalen-1-yl)pyrrolidine-2-carboxamide]
< 100	> 90	< 100	> 90			Cc1ncsc1-c1ccc(C(CN2CCOCC2)NC(=O)[C@@H]2C[C@@H](O)CN2C(=O)[C@@H](c2cc(O[C@H]3CC[C@H](CN4CCN(c5ccc6c(c5)-n5c(nc(=O)c7c(Cl)cccc75)C6(C)C)CC4)CC3)no2)C(C)C)cc1 (stereo partly drawn) [Compound B163, (2S,4R)-1-((R)-2-(3-(((11,4R)-4-((4-(4-chloro-7,7-dimethyl-5-oxo-5,7-dihydroindolo[1,2-a]quinazolin-10-yl)piperazin-1-yl)methyl)cyclohexyl)oxy)isoxazol-5-yl)-3-methylbutanoyl)-4-hydroxy-N-((R)-1-(4-(4-methylthiazol-5-yl)phenyl)-2-morpholinoethyl)pyrrolidine-2-carboxamide]
100 to 500		100 to 500		C (C (50-69% degradation))	C (C (50-69% degradation))	Cc1cc(C(C(=O)N2C[C@H](O)C[C@H]2C(=O)N[C@@H](CCN2CCC(c3cccc4c3C(C)(C)c3nc(=O)c5c(Cl)cccc5n3-4)CC2)c2ccc(-c3scnc3C)cc2)C(C)C)on1 (stereo partly drawn) [Compound B165, (2S,4R)-N-((S)-3-(4-(4-chloro-7,7-dimethyl-5-oxo-5,7-dihydroindolo[1,2-a]quinazolin-8-yl)piperidin-1-yl)-1-(4-(4-methylthiazol-5-yl)phenyl)propyl)-4-hydroxy-1-(3-methyl-2-(3-methylisoxazol-5-yl)butanoyl)pyrrolidine-2-carboxamide]
